{"source": "patent US12338256B2", "about": "“Aza-tetracyclic oxazepine compounds and uses thereof” (Genentech, Inc., priority 2022, dated 2025)", "key": {"[1]": {"test_system": "H1975 (KRAS wild type human lung adenocarcinoma cell line)", "experiment": "KRAS 3D-Cell Proliferation Assay, H1975 (Example 503)", "type": "cell-based", "conditions": "Homo sapiens, NCI-H1975, 168 h, H1975 3D culture, 7 days, CellTiter-Glo 3D; read-out: Prolif H1975 3D ATP IC50", "in_short": "(§1)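 IC50 values derive from 4-parameter Hill fits of normalized luminescence, where DMSO sets 0% and 1 μM staurosporine 100% inhibition. 3D cultures in RPMI-1640 with 10% fetal bovine serum were exposed to compound for 7 days before CellTiter-Glo 3D lysis.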"}, "[2]": {"test_system": "HPAC (homozygous mutant KRAS G12D human pancreatic cell line)", "experiment": "KRAS 3D-Cell Proliferation Assay, HPAC (Example 503)", "type": "cell-based", "conditions": "Homo sapiens, 168 h, HPAC 3D culture, 7 days, CellTiter-Glo 3D, read-out: Prolif HPAC 3D ATP IC50", "in_short": "as §1"}}, "note": "Like-named read-outs stand apart in the source and are kept apart here.", "data": [{"smiles": "Cc1c(F)c(N)c(F)c(-c2nc3c4c(nc(OC[C@@H]5C[C@@H](F)CN5C)nc4c2F)N2C[C@H]4CC[C@H](N4)[C@H]2[C@H](C)O3)c1C(F)(F)F", "note": "[Compound 228, 2,6-Difluoro-3-((5S,5aS,6S,9R)-1-fluoro-12-(((2S,4R)-4-fluoro-1-methylpyrrolidin-2-yl)methoxy)-5-methyl-5a,6,7,8,9,10-hexahydro-5H-4-oxa-3,10a,11,13,14-pentaaza-6,9-methanonaphtho[1,8-ab]heptalen-2-yl)-5-methyl-4-(trifluoromethyl)aniline]", "values": [{"measurement": "IC50", "setting": "[1]", "value": 20000, "unit": "nM"}, {"measurement": "IC50", "setting": "[2]; HPAC", "value": 2000, "unit": "nM"}]}, {"smiles": "Cc1c(F)c(N)c(F)c(-c2nc3c4c(nc(OC[C@@]56CCCN5C/C(=C\\F)C6)nc4c2F)N2C[C@H]4CC[C@H](N4)[C@H]2[C@H](C)O3)c1C(F)(F)F", "note": "[Compound 229, 2,6-Difluoro-3-((5S,5aS,6S,9R)-1-fluoro-12-(((S,Z)-2-(fluoromethylene)tetrahydro-1H-pyrrolizin-7a(5H)-yl)methoxy)-5-methyl-5a,6,7,8,9,10-hexahydro-5H-4-oxa-3,10a,11,13,14-pentaaza-6,9-methanonaphtho[1,8-ab]heptalene-2-yl)-5-methyl-4-(trifluoromethyl)aniline]", "values": [{"measurement": "IC50", "setting": "[1]", "value": 639, "unit": "nM"}, {"measurement": "IC50", "setting": "[2]; HPAC", "value": 1.82, "unit": "nM"}]}, {"smiles": "Cc1cc(N)cc(-c2nc3c4c(nc(OC[C@@H]5CC[C@H]6COCCN65)nc4c2F)N2C[C@H]4CC[C@H](N4)[C@H]2[C@H](C)O3)c1CC(F)F", "note": "[Compound 230, 4-(2,2-Difluoroethyl)-3-((5S,5aS,6S,9R)-1-fluoro-12-(((6S,8aS)-hexahydro-1H-pyrrolo[2,1-c][1,4]oxazin-6-yl)methoxy)-5-methyl-5a,6,7,8,9,10-hexahydro-5H-4-oxa-3,10a,11,13,14-pentaaza-6,9-methanonaphtho[1,8-ab]heptalen-2-yl)-5-methylaniline]", "values": [{"measurement": "IC50", "setting": "[1]", "value": 5840, "unit": "nM"}, {"measurement": "IC50", "setting": "[2]; HPAC", "value": 28.4, "unit": "nM"}]}, {"smiles": "Cc1cc(N)c(F)c(-c2nc3c4c(nc(OC[C@@H]5CC[C@H]6COCCN65)nc4c2F)N2C[C@H]4CC[C@H](N4)[C@H]2[C@H](C)O3)c1CC(F)F", "note": "[Compound 231, 4-(2,2-Difluoroethyl)-2-fluoro-3-((5S,5aS,6S,9R)-1-fluoro-12-(((6S,8aS)-hexahydro-1H-pyrrolo[2,1-c][1,4]oxazin-6-yl)methoxy)-5-methyl-5a,6,7,8,9,10-hexahydro-5H-4-oxa-3,10a,11,13,14-pentaaza-6,9-methanonaphtho[1,8-ab]heptalen-2-yl)-5-methylaniline]", "values": [{"measurement": "IC50", "setting": "[1]", "value": 13200, "unit": "nM"}, {"measurement": "IC50", "setting": "[2]; HPAC", "value": 39.8, "unit": "nM"}]}, {"smiles": "CCc1c(F)c(N)cc(-c2nc3c4c(nc(OC[C@@H]5CC[C@H]6COCCN65)nc4c2F)N2C[C@H]4CC[C@H](N4)[C@H]2[C@H](C)O3)c1C(F)(F)F", "note": "[Compound 232, 3-Ethyl-2-fluoro-5-((5S,5aS,6S,9R)-1-fluoro-12-(((6S,8aS)-hexahydro-1H-pyrrolo[2,1-c][1,4]oxazin-6-yl)methoxy)-5-methyl-5a,6,7,8,9,10-hexahydro-5H-4-oxa-3,10a,11,13,14-pentaaza-6,9-methanonaphtho[1,8-ab]heptalen-2-yl)-4-(trifluoromethyl)aniline]", "values": [{"measurement": "IC50", "setting": "[1]", "value": 10500, "unit": "nM"}, {"measurement": "IC50", "setting": "[2]; HPAC", "value": 77, "unit": "nM"}]}, {"smiles": "C[C@@H]1Oc2nc(-c3cc(N)c(F)c(C4CC4)c3C(F)(F)F)c(F)c3nc(OC[C@@H]4CC[C@H]5COCCN54)nc(c23)N2C[C@H]3CC[C@H](N3)[C@@H]12", "note": "[Compound 233, 3-Cyclopropyl-2-fluoro-5-((5S,5aS,6S,9R)-1-fluoro-12-(((6S,8aS)-hexahydro-1H-pyrrolo[2,1-c][1,4]oxazin-6-yl)methoxy)-5-methyl-5a,6,7,8,9,10-hexahydro-5H-4-oxa-3,10a,11,13,14-pentaaza-6,9-methanonaphtho[1,8-ab]heptalen-2-yl)-4-(trifluoromethyl)aniline]", "values": [{"measurement": "IC50", "setting": "[1]", "value": 5400, "unit": "nM"}, {"measurement": "IC50", "setting": "[2]; HPAC", "value": 2000, "unit": "nM"}]}, {"smiles": "Cc1c(F)c(N)cc(-c2nc3c4c(nc(OC[C@@]56CCCN5C[C@H](F)C6)nc4c2F)N2C[C@H]4CC[C@H](NC4)[C@H]2CO3)c1C(F)(F)F", "note": "[Compound 236, 2-Fluoro-5-((5aS,6S,9S)-1-fluoro-12-(((2R,7aS)-2-fluorotetrahydro-1H-pyrrolizin-7a(5H)-yl)methoxy)-5a,6,7,8,9,10-hexahydro-5H-4-oxa-3,10a,11,13,15-pentaaza-6,9-ethanonaphtho[1,8-ab]heptalene-2-yl)-3-methyl-4-(trifluoromethyl)aniline]", "values": [{"measurement": "IC50", "setting": "[1]", "value": 14500, "unit": "nM"}, {"measurement": "IC50", "setting": "[2]; HPAC", "value": 2000, "unit": "nM"}]}, {"smiles": "Cc1c(F)c(N)cc(-c2nc3c4c(nc(OC[C@@]56CCCN5C[C@H](F)C6)nc4c2F)N2C[C@H]4CC[C@H](N4)[C@H]2C(CF)O3)c1C(F)(F)F", "note": "(stereo partly drawn) [Compound 239, 2-Fluoro-5-((5aS,6S,9R)-1-fluoro-5-(fluoromethyl)-12-(((2R,7aS)-2-fluorotetrahydro-1H-pyrrolizin-7a(5H)-yl)methoxy)-5a,6,7,8,9,10-hexahydro-5H-4-oxa-3,10a,11,13,14-pentaaza-6,9-methanonaphtho[1,8-ab]heptalen-2-yl)-3-methyl-4-(trifluoromethyl)aniline]", "values": [{"measurement": "IC50", "setting": "[1]", "value": 569, "unit": "nM"}, {"measurement": "IC50", "setting": "[2]; HPAC", "value": 33.4, "unit": "nM"}]}, {"smiles": "Cc1c(Cl)c(N)cc(-c2nc3c4c(nc(OC[C@@]56CCCN5C[C@H](F)C6)nc4c2Cl)N2C[C@H]4CC[C@H](N4)[C@H]2[C@H](C)O3)c1C(F)(F)F", "note": "[Compound 241, 2-Chloro-5-((5S,5aS,6S,9R)-1-chloro-12-(((2R,7aS)-2-fluorotetrahydro-1H-pyrrolizin-7a(5H)-yl)methoxy)-5-methyl-5a,6,7,8,9,10-hexahydro-5H-4-oxa-3,10a,11,13,14-pentaaza-6,9-methanonaphtho[1,8-ab]heptalen-2-yl)-3-methyl-4-(trifluoromethyl)aniline]", "values": [{"measurement": "IC50", "setting": "[1]", "value": 1200, "unit": "nM"}, {"measurement": "IC50", "setting": "[2]; HPAC", "value": 16.2, "unit": "nM"}]}, {"smiles": "Cc1c(F)c(N)cc(-c2nc3c4c(nc(OC[C@@]56CCCN5C[C@H](F)C6)nc4c2F)N2C[C@H]4CC[C@H](N4)[C@H]2[C@H](C(F)(F)F)O3)c1CC(F)F", "note": "[Compound 250, 4-(2,2-Difluoroethyl)-2-fluoro-5-((5R,5aS,6S,9R)-1-fluoro-12-(((2R,7aS)-2-fluorotetrahydro-1H-pyrrolizin-7a(5H)-yl)methoxy)-5-(trifluoromethyl)-5a,6,7,8,9,10-hexahydro-5H-4-oxa-3,10a,11,13,14-pentaaza-6,9-methanonaphtho[1,8-ab]heptalene-2-yl)-3-methylaniline]", "values": [{"measurement": "IC50", "setting": "[1]", "value": 994, "unit": "nM"}, {"measurement": "IC50", "setting": "[2]; HPAC", "value": 16.9, "unit": "nM"}]}, {"smiles": "Cc1nc(N)c(F)c(-c2nc3c4c(nc(OC[C@@]56CCCN5C[C@H](F)C6)nc4c2F)N2C[C@H]4CC[C@H](N4)[C@H]2[C@H](C(F)(F)F)O3)c1C(F)(F)F", "note": "[Compound 256, 3-Fluoro-4-((5R,5aS,6S,9R)-1-fluoro-12-(((2R,7aS)-2-fluorotetrahydro-1H-pyrrolizin-7a(5H)-yl)methoxy)-5-(trifluoromethyl)-5a,6,7,8,9,10-hexahydro-5H-4-oxa-3,10a,11,13,14-pentaaza-6,9-methanonaphtho[1,8-ab]heptalen-2-yl)-6-methyl-5-(trifluoromethyl)pyridin-2-amine]", "values": [{"measurement": "IC50", "setting": "[1]", "value": 93.4, "unit": "nM"}, {"measurement": "IC50", "setting": "[2]", "value": 13.9, "unit": "nM"}]}, {"smiles": "Cc1c(F)c(N)cc(-c2nc3c4c(nc(OCC5(CN6CC6(C)C)CC5)nc4c2F)N2C[C@H]4CC[C@H](N4)[C@H]2[C@H](C)O3)c1C(F)(F)F", "note": "(stereo partly drawn) [Compound 259, 5-((5S,5aS,6S,9R)-12-((1-((2,2-Dimethylaziridin-1-yl)methyl)cyclopropyl)methoxy)-1-fluoro-5-methyl-5a,6,7,8,9,10-hexahydro-5H-4-oxa-3,10a,11,13,14-pentaaza-6,9-methanonaphtho[1,8-ab]heptalen-2-yl)-2-fluoro-3-methyl-4-(trifluoromethyl)aniline]", "values": [{"measurement": "IC50", "setting": "[1]", "value": 1970, "unit": "nM"}, {"measurement": "IC50", "setting": "[2]; HPAC", "value": 12.3, "unit": "nM"}]}, {"smiles": "C[C@@H]1Oc2nc(-c3cc(N)nc(C(F)F)c3C(F)(F)F)c(F)c3nc(OC[C@@]45CCCN4C[C@H](F)C5)nc(c23)N2C[C@H]3CC[C@H](N3)[C@@H]12", "note": "[Compound 260, 6-(Difluoromethyl)-4-((5S,5aS,6S,9R)-1-fluoro-12-(((2R,7aS)-2-fluorotetrahydro-1H-pyrrolizin-7a(5H)-yl)methoxy)-5-methyl-5a,6,7,8,9,10-hexahydro-5H-4-oxa-3,10a,11,13,14-pentaaza-6,9-methanonaphtho[1,8-ab]heptalen-2-yl)-5-(trifluoromethyl)pyridin-2-amine]", "values": [{"measurement": "IC50", "setting": "[1]", "value": 3250, "unit": "nM"}, {"measurement": "IC50", "setting": "[2]; HPAC", "value": 41.5, "unit": "nM"}]}, {"smiles": "Cc1nc(N)cc(-c2nc3c4c(nc(OCC56C[C@@H](F)CN5C[C@H](F)C6)nc4c2F)N2C[C@H]4CC[C@H](N4)[C@H]2[C@H](C(F)(F)F)O3)c1C(F)(F)F", "note": "[Compound 261, 4-((5R,5aS,6S,9R)-12-(((2R,6R)-2,6-Difluorotetrahydro-1H-pyrrolizin-7a(5H)-yl)methoxy)-1-fluoro-5-(trifluoromethyl)-5a,6,7,8,9,10-hexahydro-5H-4-oxa-3,10a,11,13,14-pentaaza-6,9-methanonaphtho[1,8-ab]heptalen-2-yl)-6-methyl-5-(trifluoromethyl)pyridin-2-amine]", "values": [{"measurement": "IC50", "setting": "[1]", "value": 6100, "unit": "nM"}, {"measurement": "IC50", "setting": "[2]; HPAC", "value": 107, "unit": "nM"}]}, {"smiles": "Cc1nc(N)cc(-c2nc3c4c(nc(OCC5(CN6CC7CC(C6)O7)CC5)nc4c2F)N2C[C@H]4CC[C@H](N4)[C@H]2[C@H](C)O3)c1C(F)(F)F", "note": "[Compound 265, 4-((5S,5aS,6S,9R)-12-((1-((6-oxa-3-azabicyclo[3.1.1]heptan-3-yl)methyl)cyclopropyl)methoxy)-1-fluoro-5-methyl-5a,6,7,8,9,10-hexahydro-5H-4-oxa-3,10a,11,13,14-pentaaza-6,9-methanonaphtho[1,8-ab]heptalene-2-yl)-6-methyl-5-(trifluoromethyl)pyridin-2-amine]", "values": [{"measurement": "IC50", "setting": "[1]", "value": 6240, "unit": "nM"}, {"measurement": "IC50", "setting": "[2]; HPAC", "value": 2.24, "unit": "nM"}]}]}
